# Measurements published in patent publication US10738043B2, “GLS1 inhibitors for treating disease” (Board of Regents, The University of Texas System, priority 2015, dated 2020).
# Read-outs that look alike come from different tables or passages of the source.
# Key:
# A549 cells = assay: Proliferation Assay (A549 viability, Cell Titer Fluor, 72 hours); type: cell-based; details: read-out: EC50 against A549 cell proliferation
# Procedure: A549 cells were routinely maintained in RPMI 1640 media (Gibco catalog number 11875-093) supplemented with 10% dialyzed fetal bovine serum using a humidified incubator (37° C., 5% CO2 and ambient O2). In preparation for the viability assay, cells were inoculated into 384-well black CulturPlates (Perkin Elmer) at a density of 1000 cells/well in a volume of 40 μl. Following a 24-hour incubation at 37° C., 5% CO2 and ambient 02, cells were treated with compound (10 μl) in a final DMSO concentration of 0.5% (v/v). The microplates were then incubated for 72 hours (37° C., 5% CO2 and ambient O2). Cell Titer Fluor (Promega) was subsequently added (10 μl of 6× reagent) and mixed for 15 minutes at room temperature. The plates were then incubated for 30 minutes (37° C., 5% CO2 and ambient O2) and fluorescence was subsequently read on the Perkin Elmer Envision plate reader. EC50 values were calculated using a four-parameter logistic curve fit.
# [1] = target: T1, GLS1 (purified recombinant human GAC) (Homo sapiens, UniProt O94925); assay: GLS1 Enzymatic Activity Assay (dual-coupled enzymatic assay); type: biochemical; details: 50 mM potassium phosphate, 1 mM glutamine, read-out: IC50 against GLS1
# T1 sequence (O94925 55-598 isoform O94925-3 limits assumed): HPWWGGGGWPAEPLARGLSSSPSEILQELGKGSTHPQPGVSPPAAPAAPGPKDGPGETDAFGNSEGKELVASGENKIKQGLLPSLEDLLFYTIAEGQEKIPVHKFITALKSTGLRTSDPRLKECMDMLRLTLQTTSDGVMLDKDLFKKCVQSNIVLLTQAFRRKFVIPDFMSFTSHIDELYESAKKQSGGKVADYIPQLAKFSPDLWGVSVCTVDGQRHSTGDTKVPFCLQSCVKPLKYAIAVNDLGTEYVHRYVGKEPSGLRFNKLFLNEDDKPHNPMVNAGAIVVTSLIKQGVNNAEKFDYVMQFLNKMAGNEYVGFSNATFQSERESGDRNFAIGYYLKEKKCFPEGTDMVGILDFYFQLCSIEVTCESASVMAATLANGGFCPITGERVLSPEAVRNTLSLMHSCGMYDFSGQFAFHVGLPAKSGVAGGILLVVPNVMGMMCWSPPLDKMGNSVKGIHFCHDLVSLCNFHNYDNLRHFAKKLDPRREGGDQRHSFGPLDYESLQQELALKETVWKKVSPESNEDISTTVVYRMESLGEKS
# Procedure: GLS1 Enzymatic Activity Assay
# The inhibition of purified recombinant human GAC by varying concentrations of inhibitors is assessed via a dual-coupled enzymatic assay. The glutamate produced by the glutaminase reaction is used by glutamate oxidase to produce α-ketoglutarate, ammonia, and hydrogen peroxide, with this hydrogen peroxide subsequently being used by horseradish peroxidase to produce resorufin in the presence of Amplex UltraRed. The assay buffer consisted of 50 mM HEPES (pH 7.4), 0.25 mM EDTA and 0.1 mM Triton X-100. GAC was incubated with potassium phosphate (10 minutes at room temperature) prior to incubation with inhibitor (10 minutes at room temperature). The final reaction conditions were as follows: 2 nM GAC, 50 mM potassium phosphate, 100 mU/ml glutamate oxidase (Sigma), 1 mM glutamine (Sigma), 100 mU/ml horseradish peroxidase (Sigma), 75 μM Amplex UltraRed (Life Technologies), and 1% (v/v) DMSO. The production of resorufin was monitored on a Perkin Elmer Envision plate reader (excitation 530 nm, emission 590 nm) either in a kinetics or endpoint mode (at 20 minutes). IC50 values were calculated using a four-parameter logistic curve fit.
Molecule,EC50 (A549 cells) [nM],IC50 [1] [nM],EC50 (A549 cells; Homo sapiens) [nM]
"2-(thiazol-4-yl)-N-(5-(1-(6-(2-(3-(trifluoromethoxy)phenyl)acetamido)pyridazin-3-yl)pyrrolidin-3-yl)-1,3,4-thiadiazol-2-yl)acetamide [Example 31]",100 to 500,< 100,–
"O=C(Cc1ccccc1)Nc1ccc(N2CCCC(c3nnc(NC(=O)Cc4ccccc4)s3)C2)nn1 (stereo not shown) [Example 2, 2-Phenyl-N-(6-(3-(5-(2-phenylacetamido)-1,3,4-thiadiazol-2-yl)piperidin-1-yl)pyridazin-3-yl)acetamide]",–,< 100,100 to 500
"CNC(=O)c1cn(C2CCN(c3ccc(NC(=O)Cc4cccc(OC(F)(F)F)c4)nn3)C2)nn1 (stereo not shown) [Example 6, N-Methyl-1-(1-(6-(2-(3-(trifluoromethoxy)phenyl)acetamido)pyridazin-3-yl)pyrrolidin-3-yl)-1H-1,2,3-triazole-4-carboxamide]",–,100 to 500,500 to 5000
"O=C(Cc1cccc(OC(F)(F)F)c1)Nc1ccc(N2CCCC(n3cc(C(=O)NCc4ccccn4)nn3)C2)nn1 (stereo not shown) [Example 7, N-(Pyridin-2-ylmethyl)-1-(1-(6-(2-(3-(trifluoromethoxy)phenyl)acetamido)pyridazin-3-yl)piperidin-3-yl)-1H-1,2,3-triazole-4-carboxamide]",–,100 to 500,500 to 5000
"O=C(Cc1ccccn1)Nc1ccc(N2CCC(c3nnc(NC(=O)Cc4ccccn4)s3)C2)nn1 (stereo not shown) [Example 9, 2-(pyridin-2-yl)-N-(6-(3-(5-(2-(pyridin-2-yl)acetamido)-1,3,4-thiadiazol-2-yl)pyrrolidin-1-yl)pyridazin-3-yl)acetamide]",–,< 100,500 to 5000
"CC(=O)Nc1nnc(C2CCN(c3ccc(NC(=O)Cc4ccccn4)nn3)C2)s1 (stereo not shown) [Example 12, N-(6-(3-(5-acetamido-1,3,4-thiadiazol-2-yl)pyrrolidin-1-yl)pyridazin-3-yl)-2-(pyridin-2-yl)acetamide]",–,100 to 500,–

# More lines, now with the values ahead:
EC50 (A549 cells) [nM],IC50 [1] [nM],EC50 (A549 cells; Homo sapiens) [nM],Molecule
< 100,< 100,–,"2-(2-phenylthiazol-4-yl)-N-(5-(1-(6-(2-(3-(trifluoromethoxy)phenyl)acetamido)pyridazin-3-yl)pyrrolidin-3-yl)-1,3,4-thiadiazol-2-yl)acetamide [Example 30]"
–,100 to 500,500 to 5000,"Nc1nnc(C2CCCN(c3ccc(NC(=O)Cc4ccccc4)nn3)C2)s1 (stereo not shown) [Example 1, N-(6-(3-(5-Amino-1,3,4-thiadiazol-2-yl)piperidin-1-yl)pyridazin-3-yl)-2-phenylacetamide]"
–,< 100,100 to 500,"O=C(Cc1ccccc1)Nc1ccc(N2CCCC(c3nnc(NC(=O)Cc4ccccn4)s3)C2)nn1 (stereo not shown) [Example 3, 2-Phenyl-N-(6-(3-(5-(2-(pyridin-2-yl)acetamido)-1,3,4-thiadiazol-2-yl)piperidin-1-yl)pyridazin-3-yl)acetamide]"
–,100 to 500,500 to 5000,"CC(=O)Nc1nnc(C2CCCN(c3ccc(NC(=O)Cc4ccccc4)nn3)C2)s1 (stereo not shown) [Example 4, N-(6-(3-(5-Acetamido-1,3,4-thiadiazol-2-yl)piperidin-1-yl)pyridazin-3-yl)-2-phenylacetamide]"
–,500 to 5000,500 to 5000,"O=C(Nc1ccc(N2CCC(n3cc(C(=O)NCc4ccccn4)nn3)C2)nn1)OCc1ccccc1 (stereo not shown) [Example 5, Benzyl (6-(3-(4-((pyridin-2-ylmethyl)carbamoyl)-1H-1,2,3-triazol-1-yl)pyrrolidin-1-yl)pyridazin-3-yl)carbamate]"
–,100 to 500,500 to 5000,"O=C(Cc1cccc(OC(F)(F)F)c1)Nc1ccc(N2CCC(n3cc(C(=O)NCc4ccccn4)nn3)C2)nn1 (stereo not shown) [Example 8, N-(pyridin-2-ylmethyl)-1-(1-(6-(2-(3-(trifluoromethoxy)phenyl)acetamido)pyridazin-3-yl)pyrrolidin-3-yl)-1H-1,2,3-triazole-4-carboxamide]"
–,100 to 500,500 to 5000,"CC(=O)Nc1cn(C2CCN(c3ccc(NC(=O)Cc4cccc(OC(F)(F)F)c4)nn3)C2)nn1 (stereo not shown) [Example 11, N-(6-(3-(4-acetamido-1H-1,2,3-triazol-1-yl)pyrrolidin-1-yl)pyridazin-3-yl)-2-(3-(trifluoromethoxy)phenyl)acetamide]"
